Reference: patent US4837238A, “Pharmacologically useful pyrazolopyridines” (Beecham Group p.l.c., priority 1985, dated 1989)

Assays:
Assay type in all cases: in vivo
cantharidin mouse ear = test: Mouse cantharidin screen (topical anti-inflammatory activity, mouse ear); settings: 500 μg/ear, 25 μg cantharidin, 24 h, ***P < 0.001
Procedure: Compounds were tested for topical anti-inflammatory activity in a cantharidin mouse ear screen, modified from Swingle, K. F., Reiter, M. J. and Schwartzmiller, D. H., Arch. Int. Pharmacodyn., (1981), 254, 168-176).
(a) 25 μg cantharidin (in 10 μl THF/MeOH) was applied to both ears. Compound, in the same solvent, was applied at the same time, to the left ear only. Ears were weighed 24 h after cantharidin application. Percentage inhibition of the acute inflammatory swelling refers to the increase in weight of left ears (cantharidine plus compound) compared with solvent-treated negative controls, as a proportion of the increase in weight of right ears (cantharidin alone) over similar controls.

[1] = test system: Carrageenin-induced pleurisy in the rat; test: Carrageenin-induced pleurisy in the rat (monocyte accumulation); settings: 25 mg/kg p.o., 1 hour before and 24 and 48 hours after carrageenin, 72 hours; compared to control (p<0.05)
Procedure: This model of monocyte accumulation is based on the method of R. Vinegar, J. F. Truax, J. L. Selph and F. A. Voelker [Federation Proceedings 41, 2588-2595, 1982].
0.2 ml of a 2.0% solution of λ-carrageenin (Viscarin 402) in saline was injected intrapleurally in anaesthetised rats (wt. approx. 175-200 g). Compounds were administered 1 hour before carrageenin and at 24 and 48 hours after carrageenin. 72 hours after carrageenin injection, 4.0 ml of EDTA solution (5 g EDTA in 100 ml of 0.9% saline and 325 mg phenol red added together with saline to 1 liter) was injected intrapleurally after killing the animals, and the exudate was removed with a syringe through the diaphragm. Exudate volume was calculated from the dilution of the phenol red injected, determined spectrophotometrically (560 nm) and cellular content estimated with a DNA assay [Karsten U. and Wollenberger A. Anal. Biochem. 77, 464-470, 1977].

[2] = test system: mouse sensitized to oxazolone; test: Mouse oxazolone screen (topical anti-inflammatory activity, sensitized mouse ear); settings: 200 μg/ear, 1 hour before 100 μg oxazolone challenge, 24 hours, **p < 0.01, ***p < 0.001
Procedure: Compounds were tested for topical anti-inflammatory activity in a screen using the mouse sensitized to oxazolone, by a method modified from that of Dietrich and Hess [Int. Arch. Allergy, 38, 246 (1970)].
Mice were sensitized with oxazolone (2 mg in 20 μl EtOH) on a shaved area of the abdomen. 5 days later, the animals received 10 μl THF/MeOH (1:1 v/v) on the right ear and the test compound in the same solvent on the left ear. 1 hour later, the animals were challenged with 100 μg oxazolone in 10 μl acetone on each ear. Ear weights were measured 24 hours later. Percentage inhibition of the inflammatory swelling refers to the increase in weight of left ears (oxazolone plus compound in THF/MeOH) compared to untreated negative controls, as a proportion of the increase in weight of right ears (oxazolone only in THF/MeOH) over similar controls.

SMILES | % INHIBITION (acute inflammatory swelling, ear weight) (cantharidin mouse ear) [%] | inhibition of DNA content (exudate cellular content) [1] [%] | inhibition of exudate volume [1] [%] | % INHIBITION (inflammatory swelling, ear weight) [2] [%]
CCCCNc1c(C)cnc2cn[nH]c12 [Example 1, 7n-Butylamino-6-methyl-1H-pyrazolo[4,3-b]pyridine] | 95 |  |  | 
OCCNc1c2c(nc3cn[nH]c13)CCCC2 [Example 5, 9-(2-Hydroxyethylamino)-5,6,7,8-tetrahydro-1H-pyrazolo-[4,3-b]quinoline] | 91 | 31 | 36 | 
CC(C)CNc1c2c(nc3cn[nH]c13)CCCC2 [Example 6, 9-Isobutylamino-5,6,7,8-tetrahydro-1H-pyrazolo[4,3-b]quinoline] | 97 |  |  | 66
CC(C)CNc1c2c(nc3cn[nH]c13)CCC2 [Example 8, 8-Isobutylamino-5,6,7-trihydro-1H-cyclopenta[b]pyrazolo[3,4-e]pyridine] | 97 |  |  | 49
CCCNc1c(CN)cnc2cn[nH]c12 [Example 9, 6-Aminomethyl-7-propylamino-1H-pyrazolo[4,3-b]pyridine] | 91 |  |  | 
